This is an account of results in patent US12358963B2, “Regenerative polypeptides and uses thereof” (Juvena Therapeutics, Inc., priority 2019, dated 2025).

Common to all, as to format: cell-based
The test system of one assay is mouse myoblast cells. The experiment in a line: Mouse myoblast proliferation assay (EdU). The conditions noted are these: for % EdU: vehicle 3.14. The method, then: FIG. 5A) Bar graph quantitation of % EdU+ mouse myoblast in response to BMP7. Myoblast were cultured 48h in the presence of BMP7 at indicated dose. Fresh media and BMP7 was added every 24h, followed by 2 hour EdU pulse and fixation. Mean∓S.D. Significant p-values (Vehicle˜BMP7 0.025 ug/mL: 1.21E-07, Vehicle˜BMP7 0.075 ug/mL: 8.05E-07, Vehicle˜BMP7 0.2255 ug/mL: 3.37E-03, Vehicle˜BMP7 0.9 ug/mL: 4.99E-02). FIG. 5B) Bar graph quantitation of % EdU+ human myoblast (person) in response to BMP7. Myoblast were cultured 72h in the presence of BMP7 at indicated dose. Cells were pulsed with EdU for 4 hours before fixation. Mean∓S.D. Significant p-values (Vehicle˜BMP7 1.56 ng/mL: 0.04). (*p<0.05 by Welch's One-Tailed T-test, n=2)
FIG. 6A) Bar graph of % EdU+ mouse myoblast cells compared to vehicle. Mouse myoblast were cultured 48h in the presence of indicated factors, followed by a 2 hour EdU pulse prior to fixation. Mean∓S.D. Significant p-values (FM˜BMP7: 0.008 ug/mL: 3.17E-02, FM˜Leucine: 300 uM BMP7: 0.008 ug/mL: 2.77E-03, FM˜Leucine: 100 uM BMP7: 0.008 ug/mL: 3.72E-05, FM˜Leucine: 900 uM BMP7: 0.008 ug/mL: 2.52E-03). (*p<0.05 by One-Way ANOVA Tukey Honest Significant Difference, n=2-6)
FIG. 7A: Bar graph of % EdU+ mouse myoblast cells compared to vehicle. Mouse myoblast were cultured 48h in the presence of indicated factors. EdU pulse and fixation. Mean∓S.D. (*p<0.05 by Student's One-Tailed T-Test of increased activity, n=2-6)
FIG. 10A) The suspension CHO cells were transiently transfected with either the empty control plasmid or the FGF17-hFcm encoding plasmid. After four days, the culture supernatants were collected and added into the culture of mouse myoblast cells for 48 hours, followed by a 2 hour EdU pulse prior to fixation. […] FIG. 10B) The suspension CHO cells were transiently transfected with the FGF17-hFcm encoding plasmid. After four days, the culture supernatants were collected and FGF17-hFcm was affinity-purified by Protein A membrane column. The purified FGF17-hFcm was added into the culture of mouse myoblast cells for 48 hours, followed by a 2 hour EdU pulse and fixation.
FIG. 11A: SDS-PAGE of culture supernatants from CHO cells transiently transfected with FGF17-hFcm or its mutants encoding plasmids (FGF17d181-216-hFcm, FGF17d204-216-hFcm, FGF17R204QK207Q-hFcm). The expressed FGF17-hFcm proteins and the mutant proteins were indicated by the white arrowheads. FIG. 11B) The culture supernatants from CHO cells transiently transfected with different FGF17 encoding plasmids were added into the culture of mouse myoblast cells for 48 hours followed by 2 hour EdU pulse and fixation.
FIG. 12A) SDS-PAGE of culture supernatants from CHO cells transiently transfected with FGF17-hFcm or its mutants encoding plasmids (FGF17d197-216-hFcm, FGF17K191AK193AS200A-hFcm). The expressed FGF17-hFcm proteins and the mutant proteins were indicated by the white arrowheads. FIG. 12B) The culture supernatants from CHO cells transiently transfected with different FGF17 encoding plasmids were added into the culture of mouse myoblast cells for 48 hours, followed by 2 hour EdU pulse and fixation.
FIG. 14A: Bar graph of % EdU+ mouse myoblast cells compared to vehicle. Myoblast were cultured 48h in the presence of indicated factors. […] Mean∓S.D. Table quantitation of % EdU and p-values (*p<0.05 by One-Way ANOVA Tukey Honest Significant Difference, n=2-6)
FIG. 15A: Bar graph of % EdU+ mouse myoblast cells compared to vehicle. […] Mean∓S.D. Table quantitation of % EdU and p-values shown. […]

For a further assay, the system named is Mouse myoblasts. The assay is described as follows: Mouse myoblast fusion index with sodium butyrate. To be noted: 48h, vehicle 7.56. Here is the method: Mouse myoblasts were treated with PBS or sodium butyrate at concentrations 0.1 nM, 1 nM, and 10 nM. Myoblasts were cultured for 48 hours, with fresh media added every 24 hours. Cells were pulsed for 2-5 hours with EdU (30 uM), ethanol fixed, stained with Hoescht 3342, immunostained for proliferation—as measured by the percent of cells staining positive for EdU (% EdU)—, and immunostained for differentiation—as measured by the increase in cellular area staining positive for embryonic myosin heavy chain (% eMyHC) relative to the negative controls, which received media and vehicle only. […] Significance was determined by a p-value less than 0.05 by the one-way ANOVA Tukey Honest Significant Difference test.
FIG. 2A: Bar graph of fusion index in response to sodium butyrate (NaBut) compared to vehicle. Myoblast were cultured 48h in the presence of NaBut at indicated dose. Fresh media and NaBut were added every 24h. Mean∓S.D. Table quantitation of fusion index and p-values also shown. (*p<0.05 by Student's Two-tailed T-test, n=3-5)

For assay [1], the system named is human myoblast cells. The assay is described as follows: Human myoblast differentiation, % area eMyHC (IGF2, sodium butyrate). The conditions noted are these: 96h, vehicle 6.813. Here is the method:
Fresh media was added every 24 hours. […] The total area of eMyHc positive cells was analyzed, and treated cells were compared to cells treated with the vehicle alone. […] Myoblast were cultured 96h in the presence of BMP7 at indicated dose. Fresh media and BMP7 was added every 24h. Mean∓S.D. (*p<0.05 by One-Way Anova Tukey Honest Significant Difference, n=2-12) […] Fresh media was added every 24 hours. […] FIG. 3A: Bar graph of % Area eMyHC+ age human myoblast (person) in response to indicated treatment compared to Vehicle (vehicle). Myoblast were cultured 96h in the presence of factors at indicated dose. Fresh media and factors were added every 24h. Mean∓S.D. Significant p-values (Vehicle IGF2: 0.03 ug/mL: 1.42E-08, Vehicle NaBut: 1 nM IGF2: 0.03 ug/mL: 1.79E-11, Vehicle NaBut: 10 nM IGF2: 0.03 ug/mL: 1.80E-11, Vehicle NaBut: 100 nM IGF2: 0.03 ug/mL: 1.79E-11). […] Myoblast were cultured 96h in the presence of BMP7 at indicated dose. Mean±S.D. Significant p-values (IGF2 NaBut: 1 nM IGF2: 0.03 ug/mL: 1.88E-3, Vehicle NaBut: 10 nM IGF2: 0.03 ug/mL: 4.80E-3, Vehicle NaBut: 100 nM IGF2: 0.03 ug/mL: 1.87E-3) (*p<0.05 by One-Way ANOVA Tukey Honest Significant Difference, n=2-12)

For a further assay, the system named is DM1 human myoblast. The experiment in a line: Gene expression fold change in DM1 human myoblast. The conditions noted are these: 48h; BMP7 50 ng/mL, Butyrate 100 nM, IGF2 200 ng/mL; FM 1.000.
The test system of assay [2] is human myoblast cells. The assay is described as follows: Human myoblast differentiation, percentage area of MyHC. To be noted: Example 3, purified, 96 hours with daily media change; vehicle control 1.384. The method, then:
FIG. 1A: The suspension CHO cells were transiently transfected with the IGF2-hFcm encoding plasmid. IGF2-hFcm was affinity-purified by Protein A membrane column. The purified IGF2-hFcm was added into the culture of human myoblast cells for 96 hours. Myosin heavy chain (MyHC) was immunostained and imaged by a fluorescence microscope.
The suspension CHO cells were transiently transfected with the IGF2-LhFc4 encoding plasmid. IGF2-LhFc4 was affinity-purified by Protein A membrane column. The purified IGF2-LhFc4 was added into the culture of human myoblast cells for 96 hours with daily media change. Myosin heavy chain (MyHC) was immunostained and imaged by a fluorescence microscope.
The suspension CHO cells were transiently transfected with the HSA-L-IGF2R61A encoding plasmid. HSA-L-IGF2R61A was affinity-purified by Protein A membrane column. […] Myosin heavy chain (MyHC) was immunostained and imaged by a fluorescence microscope.
Suspension CHO cells were transiently transfected with the IGF2-hFcm encoding plasmid. […] After quantification of the stained MyHC, the percentage area of MyHC was calculated as the percent of pixels within the field that are illuminated above background in the stained channel. […] Significance was determined by a p-value less than 0.05 by the one-way ANOVA Tukey Honest Significant Difference test.

Turning to `CC(C)C[C@H](N)C(=O)O` [Leucine], the “Effect on BMP7 mitogenic activity (% EdU+)” value in the assay on mouse myoblast cells (Leucine 100, 300, 900 uM with BMP7 0.008 ug/mL, 48h) is reported as “Enhances BMP7 Mitogenic Activity”.
`CCCC(=O)[O-].[Na+]` [NaBut, sodium butyrate]: the “Fusion Index (nuclei/myotube)” value was 8.44 nuclei/myotube in the assay on Mouse myoblasts (0.1 nM), 31.60 nuclei/myotube in the assay on Mouse myoblasts (1 nM) and 14.00 nuclei/myotube in the assay with Mouse myoblasts (10 nM). In addition, the “% eMyHC” value with human myoblast cells [1] (NaBut 1 nM) is 2.321%; in the assay with human myoblast cells [1] (NaBut 10 nM) it was 6.199%; with human myoblast cells [1] (NaBut 100 nM), 8.341%. In addition, the “MYF5 expression fold change compared to FM” value in the assay on DM1 human myoblast was found to be 1.128. Also, the “MYOD1 expression fold change compared to FM” value in the assay on DM1 human myoblast is 1.095. For the same compound, the “MYOG expression fold change compared to FM” value in the assay on DM1 human myoblast was 1.020.
As for Heparin [reference compound], the “% EdU” value in the assay with mouse myoblast cells (Heparin 0.5 ug/mL, 48h) is recorded as 1.77%; in the assay with mouse myoblast cells (Heparin 1 ug/mL, 48h), 3.01%; in the assay on mouse myoblast cells (Heparin 2 ug/mL, 48h), 2.85%.
Consider Hyaluronic Acid [Hyaluronic Acid (HA)], for which the “Effect on BMP7 mitogenic activity (% EdU+)” value in the assay with mouse myoblast cells (hyaluronic acid with BMP7, 48h) is listed as “Enhances BMP7 Mitogenic Activity”.
In the case of “IGF2-hFc4: IGF2 fused to hFc4, human IgG4 Fc with S228P point mutation”, the “% MyHC” value in the assay with human myoblast cells [2] came out at 6.901%.
